According to the NIST ThermoML archive (doi:10.1016/j.jct.2018.10.030):
± gives the expanded uncertainty stated by the source.

Details: 298.15 K; 101.33 kPa; Liquid; Vibrating tube method

SMILES | mass density [kg/m3]
CCCC(=O)O [butanoic acid] | 953.05 ± 0.21
C[S+](C)[O-] [dimethyl sulfoxide] | 1095.34 ± 0.21
CCCCCCC=O [heptanal] | 816.83 ± 3.2
CCCCCC=O [hexanal] | 830.01 ± 1
CCCCCC(=O)O [hexanoic acid] | 923.07 ± 0.21
CCCCCCCC(=O)O [octanoic acid] | 906 ± 0.32
CCCCC(=O)O [pentanoic acid] | 934.75 ± 0.21
CC(C)O [propan-2-ol] | 780.69 ± 0.23
